Test system: CCRF-CEM cancer cells - leukemia
Assay: Fluorometric Microculture Cytotoxicity Assay (FMCA), CCRF-CEM
Assay type: cell-based
Details: Homo sapiens, 72 h incubation
Excerpt: The Fluorometric Microculture Cytotoxicity Assay, FMCA (Larsson, R., et al.; Anticancer Res, 1989, 9, 1111-1119), is a three day non-clonogenic microplate-based cell viability assay used for measurement of the cytotoxic and/or cytostatic effect of compounds in vitro (Lindhagen, E. et al.; Nat. Protoc., 2008, 3, 1364-1369). FMCA represents a valuable method to measure cytotoxicity in a number of cell types, both cell lines and primary cells from patients (Larsson, R., et al.; Int. J. Cancer, 1992, 50, 177-185; Fridborg, H., et al.; Eur. J. Cancer, 1999. 35, 424-432; Dhar, S., et al.; Br. J. Cancer, 1996, 74, 888-896).
FMCA is based on the principle that fluorescein diacetate (FDA) is converted to the fluorescent probe fluorescein by esterases in the plasma membranes of living cells. For experiments, 96 or 384-well microplates are prepared with compounds and stored at −70° C. until use. Cells are then seeded into the drug-prepared plates and placed in an incubator for 72 h. On the last day of incubation, the plates are washed and a buffer containing FDA is added and incubated with the cells for 45 minutes. Finally the fluorescence per well is measured in a fluorometer and a Survival Index % (SI) for each compound-treated well is calculated with the equation: Compound-treated cells minus blank divided by control cells minus blank. A high SI-value indicates a large percentage of living cells and vice versa.
In subsequent experiments, compounds were tested, along with a number of approved cancer drugs (dasatinib, pazopanib, sorafenib, and sunitinib) as described above. Initially, the acute lymphoblastic leukemia cell line CCRF-CEM was used throughout. In the assay plates, medium was added to six empty wells (blank wells) and wells were filled with PBS and cell suspension and served as control wells. SI-values were then calculated for each compound-treated well as described above. All experiments were conducted twice and a new batch of plates was prepared for each experiment.
For dose-response experiments, 384-well plates were prepared as follows:
Compounds of the invention as well comparative kinase inhibitors sorafenib sunitinib, dasatinib, pazopanib and a reference compound disclosed in WO 2009/071535 (compound #107) were diluted with PBS to a concentration ten-times higher than the desired starting concentration. Then, a Biomek 2000 liquid handling system was employed to serially dilute the compounds in a deep-well 384-well plate. From this plate, assay plates containing 5 μl compound per well were prepared with the Biomek 2000. Certain compounds precipitated when diluted with PBS, and these compounds were therefore prepared in a 96-well plate manually as described above using culture medium RPMI 1640 instead of PBS.
The compounds were also tested at five concentrations, with five times serial dilution on the following cell types: CCRF-CEM, hTERT-RPE1 (normal retinal epithelial cells), hRPTEpiC (normal renal cells), and peripheral blood mononuclear cells (PBMC). Each experiment was performed three times, except for PBMC and hRPTEpiC, which were performed twice. SI-values were calculated, graphs were plotted using GraphPadPrism 5.0 (GraphPad Software Inc. La Jolla, Calif.) and IC50-values for each cell type and compound were determined from the curves.

Row | Structure (SMILES) | EC50
1 | COc1ccc2[nH]cc(CCNc3nccc(Nc4ccc5ccn(C)c5c4)n3)c2c1 [Example 75, N^2-[2-(5-methoxy-1H-indol-3-yl)ethyl]-N^4-(1-methylindol-6-yl)pyrimidine-2,4-diamine] | < 1 µM
2 | COc1ccc2[nH]cc(CCNc3ccnc(Nc4ccc5[nH]c(C)cc5c4)n3)c2c1 [Example 23, N^4-[2-(5-methoxy-1H-indol-3-yl)ethyl]-N^2-(2-methyl-1H-indol-5-yl)pyrimidine-2,4-diamine] | 0.059 µM
3 | Cc1cc2cc(Nc3ccnc(NCCc4c[nH]c5ccc(OC(F)(F)F)cc45)n3)ccc2[nH]1 [Example 7, N^4-(2-methyl-1H-indol-5-yl)-N^2-{2-[5-(trifluoromethoxy)-1H-indol-3-yl]ethyl}pyrimidine-2,4-diamine] | 0.14 µM
4 | CNC(=O)c1cc(Oc2ccc(NC(=O)Nc3ccc(Cl)c(C(F)(F)F)c3)cc2)ccn1 [Ref. 1, sorafenib, reference compound] | 8.3 µM
5 | COc1ccc2[nH]cc(CCNc3ccnc(Nc4cccc5c4ccn5C)n3)c2c1 [Example 84, N^4-[2-(5-methoxy-1H-indol-3-yl)ethyl]-N^2-(1-methylindol-4-yl)pyrimidine-2,4-diamine] | < 0.1 µM
6 | CCOc1ccc2[nH]cc(CCNc3nc(Nc4ccc5[nH]c(C)cc5c4)cc(C(N)=O)n3)c2c1 [Example 85, 2-[2-(5-ethoxy-1H-indol-3-yl)ethylamino]-6-[(2-methyl-1H-indol-5-yl)amino]pyrimidine-4-carboxamide] | < 0.1 µM
7 | Cc1nc(Nc2ncc(C(=O)Nc3c(C)cccc3Cl)s2)cc(N2CCN(CCO)CC2)n1 [Ref. 3, dasatinib, reference compound] | 9.7 µM
8 | c1ccc2c(CCNc3nccc(Nc4ccc5[nH]ccc5c4)n3)c[nH]c2c1 [Example 1, N^2-[2-(1H-indol-3-yl)ethyl]-N^4-(1H-indol-5-yl)pyrimidine-2,4-diamine] | 4.1 µM
9 | COc1ccc2[nH]cc(CCNc3nccc(N(C)c4ccc5[nH]c(C)cc5c4)n3)c2c1 [Example 61, N^2-[2-(5-methoxy-1H-indol-3-yl)ethyl]-N^4-methyl-N^4-(2-methyl-1H-indol-5-yl)pyrimidine-2,4-diamine] | 1 to 10 µM
10 | COc1ccc2[nH]cc(CCNc3nc(Nc4cccc5c4ccn5C)cc(C(N)=O)n3)c2c1 [Example 87, 2-[2-(5-methoxy-1H-indol-3-yl)ethylamino]-6-[(1-methylindol-4-yl)amino]pyrimidine-4-carboxamide] | < 0.1 µM
11 | Cc1cc2cc(Nc3ccnc(NCCc4c[nH]c5ccccc45)n3)ccc2[nH]1 [Example 3, N^2-[2-(1H-indol-3-yl)ethyl]-N^4-(2-methyl-1H-indol-5-yl)pyrimidine-2,4-diamine] | 0.29 µM
12 | COc1ccc2[nH]cc(CCNc3nccc(Nc4ccc5[nH]ccc5c4)n3)c2c1 [Example 2, N^4-(1H-indol-5-yl)-N^2-[2-(5-methoxy-1H-indol-3-yl)ethyl]pyrimidine-2,4-diamine] | 0.14 µM
13 | COc1cccc2[nH]cc(CCNc3nccc(Nc4ccc5[nH]c(C)cc5c4)n3)c12 [Example 47, N^2-[2-(4-methoxy-1H-indol-3-yl)ethyl]-N^4-(2-methyl-1H-indol-5-yl)pyrimidine-2,4-diamine] | 0.33 µM
14 | CCCOc1ccc2[nH]cc(CCNc3nccc(Nc4ccc5[nH]c(C)cc5c4)n3)c2c1 [Example 48, N^4-(2-methyl-1H-indol-5-yl)-N^2-[2-(5-propoxy-1H-indol-3-yl)ethyl]pyrimidine-2,4-diamine] | 1.3 µM
15 | Cc1cc2cc(Nc3ccnc(NCCc4c[nH]c5ccc(O)cc45)n3)ccc2[nH]1 [Example 8, 3-{2-[4-(2-methyl-1H-indol-5-ylamino)pyrimidin-2-ylamino]ethyl}-1H-indol-5-ol] | 3.1 µM

Reference: patent publication US9006241B2, “Pyrimidine derivatives” (Noviga Research AB, priority 2011, dated 2015)
